Measured values reported in PubChem BioAssay AID1259334 (Broad Institute, 2017).
Activity calls are given as the source filed them. Rule as the data show it: active = AC50 below about 11 µM. Numbered stars: 1 amine (or outer) side, 2 acyl side, 3 side chain; on linkers, the order of the positions; unused ones are H or OH. Bridge positions count the residues as written; N and C are the ends. Square brackets hold non-standard residues; d marks the D form. Peptide text beside a SMILES is read from it. I, II: the chains in the order shown. Actinocin(9to1) = Cc1c2oc3c(C)ccc(C(=O)[*:1])c3nc-2c(C(=O)[*:2])c(N)c1=O; NMeV = CN[CH](C(=O)O)C(C)C; Sar = CNCC(=O)O

How the values were obtained:
[1] = TNFa signaling inhibitors in B cell line, dose response, counter-screen (AID 1259334); settings: B cell line, TNFa signaling counterscreen reporter, hits give low values;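 also: cells stimulated with TNFa after compound preincubation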
[2] = tested on: B cell line, TNFa signaling counterscreen reporter; assay: as above

SMILES	AC50 [2]	further results
O=C(Nc1ccc([N+](=O)[O-])cc1Cl)c1cc(Cl)ccc1O		max activity ([1]; at 1.1 µM): 14.6% (inactive)
Cc1ccc(O)c(N=Nc2ccccc2)n1		max activity ([1]; at 0.12 µM): 62% (inactive)
CCc1cnc(N2[C@H](C#N)[C@@H](c3ccc(C#CC(C)C)cc3)[C@H]2CO)s1		max activity ([1]; at 10 µM): 16.5% (inactive)
Cc1noc(C)c1S(=O)(=O)N(C)C[C@H]1OCc2ccccc2-c2c(n(C)c3ccccc23)C(=O)N([C@H](C)CO)C[C@H]1C		max activity ([1]; at 10 µM): -12.3% (inactive)
COc1ccc2c3c(n(C)c2c1)[C@H](CO)N(C(=O)Nc1ccc(F)cc1)CC31CCN(C(=O)Nc2ccc(F)cc2F)CC1		max activity ([1]; at 0.0135 µM): -5.85% (inactive)
CCCNC(=O)N1[C@H](CO)[C@H](c2ccc(/C=C/c3ccccc3)cc2)[C@@H]1C#N		max activity ([1]; at 10 µM): 45.4% (inactive)
O=C(NCc1ccccn1)C1CCCN(S(=O)(=O)c2ccccc2)C1 (configuration not stated)		max activity ([1]; at 1.1 µM): 18.3% (inactive)
N#C[C@H]1[C@@H](c2ccc(C#CC3CCCCC3)cc2)[C@H](CO)N1C(=O)Nc1ccc(F)cc1		max activity ([1]; at 3.5 µM): -11.6% (inactive)
O=C(c1ccc(-c2ccc([N+](=O)[O-])cc2)o1)N1CCCC(C(F)(F)F)C1 (configuration not stated)		max activity ([1]; at 10 µM): 46.5% (inactive)
CC(C)OC(=O)CC1C(=O)NCCN1C(=S)NC(=O)c1cccs1 (configuration not stated)		max activity ([1]; at 3.5 µM): 7.79% (inactive)
N#C[C@@H]1[C@H](c2ccc(C#CC3CCCC3)cc2)[C@H](CO)N1C(=O)Cc1ccccn1		max activity ([1]; at 3.5 µM): -8.57% (inactive)
O=C1C(Br)=C(c2ccccc2)C(c2ccccc2)=C1c1ccccc1		max activity ([1]; at 1.1 µM): -5.75% (inactive)
CC(=O)NCCCC(=O)NC(CCC(=O)OCc1ccccc1)C(=O)OCc1ccccc1 (configuration not stated)		max activity ([1]; at 3.5 µM): -20% (inactive)
COc1cc2c(cc1OC)C(=O)C(Br)CC2 (configuration not stated)	2.97 µM	
O=C1NC2c3c(I)sc(I)c3C(=O)C2O1 (configuration not stated)	3.87 µM	
COc1ccc(CN2CC3(CN(C(=O)Cc4ccccc4)C3)c3c([nH]c4cc(OC)ccc34)[C@@H]2CO)cc1	> 20 µM (inactive)	
C[C@@H]1CN([C@@H](C)CO)C(=O)c2c(c3ccccc3n2C)-c2ccccc2CO[C@H]1CN(C)S(=O)(=O)c1ccc([N+](=O)[O-])cc1	> 20 µM (inactive)	
COc1cccc(S(=O)(=O)N(C)C[C@@H]2OCc3ccccc3-c3c(n(C)c4ccccc34)C(=O)N([C@@H](C)CO)C[C@@H]2C)c1	> 20 µM (inactive)	
CS(=O)(=O)c1ccc(C(=O)OCC(=O)NC(=O)C2COc3ccccc3O2)cc1[N+](=O)[O-] (configuration not stated)	5.1 µM	
COC1=CC(=O)c2c(ccc3ncnc(N)c23)C1=O	0.98 µM	
CC1=C(O)C(=O)C=C2C1=CC=C1C2(C)CCC2(C)C3CC(C)(C(=O)O)CCC3(C)CCC12C (configuration not stated)	0.414 µM	
O=C1C(O)CC2c3ccccc3CC3(CCCC3)N12 (configuration not stated)	> 20 µM (inactive)	

SMILES	AC50 [2]	further results
Cc1ccccc1NC(=O)c1nc(S(C)(=O)=O)ncc1Cl	1.96 µM	
COc1cccc(/C=N/Nc2ccc(C(=O)O)cc2)c1O	2.02 µM	
O=C(Nc1ccc(C(F)(F)F)cc1)Nc1ccc2c(c1)[C@H]1C[C@@H](CC(=O)N3CCc4ccccc4C3)O[C@H](CO)[C@H]1O2	10.7 µM	
N#Cc1cccc(-c2ccc(C3[C@@H]4CN(C(=O)Nc5ccc(C(F)(F)F)cc5)C[C@H]3N4)cc2)c1 (some centres not stated)	10 µM	
C[C@H](CO)N1C[C@H](C)[C@@H](CN(C)Cc2cccc(C(F)(F)F)c2)OCc2ccccc2-c2c(n(C)c3ccccc23)C1=O	8.03 µM	
COc1ccc(C[C@H]2NC[C@H](O)[C@H]2OC(C)=O)cc1	0.0144 µM	
O=C1/C(=C/c2ccccc2)C[C@@]2(O)C3Cc4ccc(O)c5c4[C@@]2(CCN3CC2CC2)[C@H]1O5	1.34 µM	
CCc1csc(N2[C@H](C#N)[C@H](c3ccc(C#Cc4ccc(F)cc4)cc3)[C@H]2CO)n1	> 20 µM (inactive)	
CCCCNC(=O)C1(C)CCN1C(=O)c1cc(-c2cccs2)oc1C (configuration not stated)	2.59 µM	
NC(c1ccccc1)c1csc(NC(=O)Nc2cccc(C(F)(F)F)c2)n1 (configuration not stated)	3.07 µM	
c1ccc(-c2nnc(-c3ccccn3)nn2)nc1	11.4 µM	
COc1ccc(-c2ccc([C@H]3[C@@H](C#N)N(C(=O)c4cccc(F)c4)[C@H]3CO)cc2)cc1	> 22 µM (inactive)	
OC(c1cc(-c2cccc(Cl)c2)nc2ccccc12)C1CCCCN1 (configuration not stated)	2.26 µM	
O=C(COC(=O)c1ccccc1C(=O)c1ccc(Cl)c([N+](=O)[O-])c1)NC1CC1	1.47 µM	
CSC1SCC2C(=O)N(C)C(C(C)C)C(=O)OCC(NC(=O)c3cnc4ccccc4n3)C(=O)NC(C)C(=O)N(C)C1C(=O)N(C)C(C(C)C)C(=O)OCC(NC(=O)c1cnc3ccccc3n1)C(=O)NC(C)C(=O)N2C (configuration not stated)	< 0.0005 µM	
Cc1c2oc3c(C)ccc(C(=O)OC(C)C4NC(=O)C(C(C)C)N(C)C(=O)CN(C)C(=O)C5CCCN5C(=O)C(C(C)C)NC4=O)c3nc-2c(C(=O)OC(C)C2NC(=O)C(C(C)C)N(C)C(=O)CN(C)C(=O)C3CCCN3C(=O)C(C(C)C)NC2=O)c(N)c1=O (configuration not stated) (I: cyclo([Sar][NMeV]TVP) / II: cyclo([Sar][NMeV]TVP); linker I:3-II:3 via Actinocin(9to1); configuration not given here)	0.00519 µM	
CC1CNCCN1S(=O)(=O)c1cccc2cnccc12 (configuration not stated)	7.79 µM	
C[C@@H]1CN([C@@H](C)CO)C(=O)c2ccccc2-c2ccccc2CO[C@@H]1CN(C)Cc1ccc(Oc2ccccc2)cc1	> 20 µM (inactive)	
CS(=O)(=O)c1ccc(C(=O)OCC(=O)NC(=O)C2CCCCC2)cc1[N+](=O)[O-]	2.79 µM	
CC(NCC(O)COCCC12CC3CC(CC(C3)C1)C2)c1ccccc1 (configuration not stated)	4.1 µM	
CN(C)c1ccc(C=c2c3cc(O)ccc3n3c2cc(-c2ccccc2)[n+]3C)cc1	2.46 µM	
CC(C)(C)[C@H](N)C(=O)N[C@H]1CCC2C3CC=C4C[C@@H](O)CC[C@]4(C)C3CC[C@@]21C (some centres not stated)	4.1 µM	

SMILES	AC50 [2]	further results
CCCCn1c(NC(=O)c2ccc(Br)o2)c(S(=O)(=O)c2ccccc2)c2nc3ccccc3nc21	9.82 µM	
COc1cc(C(C)C)c2c(c1)S(=O)(=O)N(COc1cc(=O)n3cccc(OCCN4CCCCC4)c3n1)C2=O	3.4 µM	
CNc1c2cccc(C)c2nc2c(C(=O)NCCN(C)C)cccc12	0.583 µM	
O=[N+]([O-])c1ccc(N2CCOCC2)c2c1no[n+]2[O-]	6.5 µM	
C=C1C(=O)C23C(O)C1CCC2C12CCCC(C)(COC(C)=O)C1C(O)C3(O)OC2 (configuration not stated)	0.507 µM	
N#C[C@@H]1[C@H](c2ccc(C#Cc3ccc(F)cc3)cc2)[C@@H](CO)N1C(=O)C1CCC1	10.7 µM	
O=C(C1CC1)N1C[C@@H]2N[C@H](C1)[C@@H]2c1ccc(-c2ccncc2)cc1	5 µM	
C1CCC(C(CC2CCCCN2)C2CCCCC2)CC1 (configuration not stated)	2.75 µM	
C[C@@H]1CN([C@H](C)CO)C(=O)c2c(c3ccccc3n2C)-c2ccccc2CO[C@@H]1CN(C)C(=O)c1cc(Cl)cc(Cl)c1	8.14 µM	
O=C(Nc1ccccn1)c1ccc(-c2ccccc2)cc1	2.91 µM	
c1cc(-c2cnn3cc(-c4ccc(OCCN5CCCCC5)cc4)cnc23)ccn1	1.13 µM	
O=c1cc(-c2ccc(O)cc2)oc2ccc3ccccc3c12	1.67 µM	
COc1ccc(CN(CCC(c2ccccc2)c2ccc(OC(C)C)cc2)C(=O)CCl)cc1OC (configuration not stated)	1.46 µM	
COc1ccc(S(=O)(=O)N(C)C[C@H]2Oc3ccc(NC(=O)Nc4ccc(C(F)(F)F)cc4)cc3C(=O)N([C@H](C)CO)C[C@H]2C)cc1	8.38 µM	
Oc1ccc2c(c1)OCC1(O)Cc3cc(O)c(O)cc3C21 (configuration not stated)	2.18 µM	
CC(C)Cc1ccc(C(C)/C=C2/CCC(CN3CCCCC3)C2=O)cc1 (configuration not stated)	8.62 µM	
Cn1cc(C2=C(c3cn(CCCSC(=N)N)c4ccccc34)C(=O)NC2=O)c2ccccc21	0.305 µM	
CC1CC(C)C(=O)C(C(O)CC2CC(=O)NC(=O)C2)C1 (configuration not stated)	0.115 µM	
Oc1c(Cl)cc(Cl)cc1Sc1cc(Cl)cc(Cl)c1O	3.41 µM	
C=CC[n+]1c(/C=C2\C=Cc3cc(C)ccc3N2CC)ccc2ccccc21	0.951 µM	
CCCCCCCCCCCCCCCC[n+]1ccccc1	0.119 µM	
CCOC(=O)c1c(SCCN2CCCC2)n(-c2ccccc2)c(=S)n(-c2ccccc2)c1=O	4.78 µM	

SMILES	AC50 [2]	further results
Oc1cc2c(cc1C(c1ccc(Br)cc1)N1CCCC1)OCO2 (configuration not stated)	6.97 µM	
C[C@H]1CN([C@@H](C)CO)C(=O)c2ccccc2-c2ccccc2CO[C@@H]1CN(C)Cc1ccccc1C(F)(F)F	7.26 µM	
CCC1=C(CC2NCCc3ccccc32)CC2c3cc(OC)c(OC)cc3CCN2C1 (configuration not stated)	1.19 µM	
CC(C)C1CC(N(C)C)=CC(=S)N1 (configuration not stated)	10.7 µM	
Cc1c(C(=O)c2cccc3ccccc23)c2cccc3c2n1[C@H](CN1CCOCC1)CO3	10.2 µM	
CC(=O)OC1CCC2(C)C(CCC3C4CC=C(C(C)=O)C4(C)OC(=O)CC32)C1 (configuration not stated)	1.65 µM	
N#C[C@H]1[C@H](c2ccc(C#Cc3ccccc3F)cc2)[C@@H](CO)N1C(=O)C1CCC1	> 20 µM (inactive)	
Cc1ccc(-c2cc(C(=O)N(C)CC(=O)Nc3ccccc3Br)c3ccccc3n2)o1	11.1 µM	
COc1cccc(C#Cc2ccc([C@H]3[C@@H](C#N)N(C(=O)c4ccccn4)[C@@H]3CO)cc2)c1	10.3 µM	
COc1c(-c2coc3cc4c(cc3c2=O)CC(O)C(C)(C)O4)ccc2c1C=CC(C)(C)O2 (configuration not stated)	11 µM	
C[C@@H]1C[C@@H]([C@H](O)CC2CC(=O)NC(=O)C2)C(=O)[C@@H](C)C1	0.199 µM	
Fc1ccccc1CNCCC(Cc1ccccc1)c1ccc2c(c1)OCO2 (configuration not stated)	3.4 µM	
O=C(Cc1ccccc1)N1CC[C@@H]2[C@H]1c1cc(-c3cccc(F)c3)ccc1N[C@@H]2CO	10.7 µM	
CC[C@@]1(O)C(=O)OCc2c1cc1n(c2=O)Cc2cc3c(CN(C)C)c(O)ccc3nc2-1	1.01 µM	
CC(C)CC#Cc1ccc([C@@H]2[C@H]3CN(C(=O)Nc4ccccc4)CCCCN3[C@H]2CO)cc1	6.52 µM	
Nc1ccc(-c2cccc3c(=O)cc(N4CCOCC4)oc23)cc1	8.56 µM	
Cc1ccnc(NC(=O)c2ccc(OCC3CCCO3)cc2)c1 (configuration not stated)	5.1 µM	
C[C@H](CO)N1C[C@H](C)[C@@H](CN(C)Cc2ccc(Oc3ccccc3)cc2)OCc2ccccc2-c2ccccc2C1=O	7.02 µM	
c1ccc(-c2nc(-c3ccccn3)no2)cc1	3.9 µM	
CCCNC(=O)c1cc2c(c(-c3cccc(-c4cc5ccccc5o4)c3)n1)[C@H](CCO)N(C(=O)NC(C)C)C2	> 20 µM (inactive)	
COc1c(O)cc2oc3cc(O)c(CC=C(C)C)c(O)c3c(=O)c2c1CC=C(C)C	3.15 µM	
